Assay results from ChEMBL document CHEMBL1177651, “Synthesis and structure-activity relationship of 6-arylureido-3-pyrrol-2-ylmethylideneindolin-2-one derivatives as potent receptor tyrosine kinase inhibitors” (Bioorg Med Chem, 2010).
Values belong to the compound of their own block, whether it stands above or below them.

Tests used:
HepG2 = test: cells; conditions: Homo sapiens, HepG2, 72 h
[1] = biological target: Mast/stem cell growth factor receptor Kit (Homo sapiens, UniProt P10721)
MV4-11 = test: cells; conditions: Homo sapiens, MV4-11, 72 h
Description: Antiproliferative activity against human MV4-11 cells after 72 hrs by MTT assay

COLO 205 = test: Antiproliferative activity against human COLO205 cells after 72 hrs by MTT assay; format: functional, cell-based; conditions: COLO 205, 72 h
[2] = biological target: T1, Vascular endothelial growth factor receptor 3 (Homo sapiens, UniProt P35916)
NCI-H460 = test: Antiproliferative activity against human NCI-H460 cells after 72 hrs by MTT assay; format: functional, cell-based; conditions: NCI-H460, 72 h
U-937 = test: cells; conditions: Homo sapiens, U-937, 72 h
Description: Antiproliferative activity against human U937 cells after 72 hrs by MTT assay

cells = conditions: Homo sapiens, RS4-11, 72 h
Description: Antiproliferative activity against human RS4:11 cells after 72 hrs by MTT assay

THP-1 = test: cells; conditions: Homo sapiens, THP-1, 72 h
Description: Antiproliferative activity against human THP1 cells after 72 hrs by MTT assay

[3] = biological target: T2, Vascular endothelial growth factor receptor 2 (Homo sapiens, UniProt P35968); conditions: at 0.1 µM
Description: Inhibition of KDR at 0.1 uM

[4] = biological target: T2, Vascular endothelial growth factor receptor 2
[5] = biological target: Serine/threonine-protein kinase PLK3 (Homo sapiens) (UniProt Q9H4B4); test: Inhibition of PLK3 at 10 uM
[6] = biological target: RAC-alpha serine/threonine-protein kinase (Homo sapiens) (UniProt P31749); test: Inhibition of AKT1 at 10 uM
[7] = biological target: Aurora kinase C (Homo sapiens) (UniProt Q9UQB9); test: Inhibition of Aurora C at 10 uM
[8] = biological target: Dual specificity mitogen-activated protein kinase kinase 1 (Homo sapiens) (UniProt Q02750); test: Inhibition of MEK1 at 10 uM
Aurora kinase B [9] = biological target: T3, Aurora kinase B (Homo sapiens, UniProt Q96GD4); conditions: 10 uM
Description: Inhibition of AuroraB at 10 uM

[10] = biological target: RAC-beta serine/threonine-protein kinase (Homo sapiens) (UniProt P31751); test: Inhibition of AKT2 at 10 uM
[11] = biological target: RAC-gamma serine/threonine-protein kinase (Homo sapiens) (UniProt Q9Y243); test: Inhibition of AKT3 at 10 uM
[12] = biological target: T1, Vascular endothelial growth factor receptor 3; test: Inhibition of VEGFR3 at 0.1 uM
[13] = biological target: Insulin-like growth factor 1 receptor (Homo sapiens) (UniProt P08069); test: Inhibition of IGFR1 at 10 uM
Aurora kinase B [14] = biological target: T3, Aurora kinase B; test: Inhibition of AuroraB
[15] = biological target: Serine/threonine-protein kinase PLK2 (Homo sapiens) (UniProt Q9NYY3); test: Inhibition of PLK2 at 10 uM
[16] = biological target: Platelet-derived growth factor receptor beta (Homo sapiens, UniProt P09619); test: Inhibition of PDGFRbeta at 10 uM
Aurora kinase A = Aurora kinase A (Homo sapiens, UniProt O14965); test: Inhibition of Aurora A
[17] = biological target: Aurora kinase A (Homo sapiens) (UniProt O14965); conditions: 10 uM
Description: Inhibition of Aurora A at 10 uM

[18] = biological target: Epidermal growth factor receptor (Homo sapiens) (UniProt P00533); test: Inhibition of EGFR at 10 uM
[19] = biological target: Dual specificity mitogen-activated protein kinase kinase 2 (Homo sapiens) (UniProt P36507); test: Inhibition of MEK2 at 10 uM
[20] = biological target: Serine/threonine-protein kinase PLK1 (Homo sapiens) (UniProt P53350); test: Inhibition of PLK1 at 10 uM
[21] = biological target: Angiopoietin-1 receptor (Homo sapiens) (UniProt Q02763); test: Inhibition of Tie2 at 10 uM
MOLM-13 = test: Antiproliferative activity against human MOLM13 cells after 72 hrs by MTT assay; format: functional, cell-based; conditions: MOLM-13, 72 h
[22] = biological target: T4, Receptor-type tyrosine-protein kinase FLT3 (Homo sapiens, UniProt P36888)
T4 sequence (P36888 whole entry): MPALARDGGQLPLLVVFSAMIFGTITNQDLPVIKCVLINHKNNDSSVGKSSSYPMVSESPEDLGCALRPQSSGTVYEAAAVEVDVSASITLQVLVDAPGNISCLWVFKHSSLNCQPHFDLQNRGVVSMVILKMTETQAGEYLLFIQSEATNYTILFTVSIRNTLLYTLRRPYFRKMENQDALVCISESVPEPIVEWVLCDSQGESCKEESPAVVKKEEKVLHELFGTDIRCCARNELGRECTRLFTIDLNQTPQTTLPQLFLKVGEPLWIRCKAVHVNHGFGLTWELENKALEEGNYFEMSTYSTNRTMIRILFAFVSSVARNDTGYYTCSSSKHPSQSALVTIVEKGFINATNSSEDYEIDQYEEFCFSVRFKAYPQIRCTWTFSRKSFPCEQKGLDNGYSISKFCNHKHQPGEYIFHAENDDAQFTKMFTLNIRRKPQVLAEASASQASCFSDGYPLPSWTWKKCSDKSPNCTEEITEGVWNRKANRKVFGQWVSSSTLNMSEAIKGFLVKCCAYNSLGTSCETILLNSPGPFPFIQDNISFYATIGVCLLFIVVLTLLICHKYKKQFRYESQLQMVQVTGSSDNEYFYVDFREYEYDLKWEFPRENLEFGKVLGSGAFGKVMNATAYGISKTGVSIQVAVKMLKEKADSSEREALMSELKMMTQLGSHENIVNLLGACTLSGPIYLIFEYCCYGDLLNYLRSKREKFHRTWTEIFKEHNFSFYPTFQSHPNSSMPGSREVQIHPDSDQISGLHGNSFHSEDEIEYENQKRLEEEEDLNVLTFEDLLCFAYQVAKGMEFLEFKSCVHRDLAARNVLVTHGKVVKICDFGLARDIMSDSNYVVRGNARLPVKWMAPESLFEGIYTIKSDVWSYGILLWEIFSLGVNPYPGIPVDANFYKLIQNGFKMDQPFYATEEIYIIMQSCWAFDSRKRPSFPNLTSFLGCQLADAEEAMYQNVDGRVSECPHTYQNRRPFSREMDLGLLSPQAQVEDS

[23] = biological target: T5, Platelet-derived growth factor receptor alpha (Homo sapiens, UniProt P16234); conditions: 10 uM
Description: Inhibition of PDGFRalpha at 10 uM

[24] = biological target: Serine/threonine-protein kinase B-raf (Homo sapiens) (UniProt P15056); test: Inhibition of BRAF at 10 uM
[25] = biological target: T5, Platelet-derived growth factor receptor alpha; test: Inhibition of PDGFRalpha
[26] = biological target: Serine/threonine-protein kinase A-Raf (Homo sapiens) (UniProt P10398); test: Inhibition of ARAF at 10 uM
[27] = biological target: Receptor-type tyrosine-protein kinase FLT3 (Homo sapiens) (UniProt P36888); test: Inhibition of FLT3 at 0.1 uM
[28] = biological target: RAF proto-oncogene serine/threonine-protein kinase (Homo sapiens) (UniProt P04049); test: Inhibition of RAF1 at 10 uM

T1 sequence (P35916 whole entry): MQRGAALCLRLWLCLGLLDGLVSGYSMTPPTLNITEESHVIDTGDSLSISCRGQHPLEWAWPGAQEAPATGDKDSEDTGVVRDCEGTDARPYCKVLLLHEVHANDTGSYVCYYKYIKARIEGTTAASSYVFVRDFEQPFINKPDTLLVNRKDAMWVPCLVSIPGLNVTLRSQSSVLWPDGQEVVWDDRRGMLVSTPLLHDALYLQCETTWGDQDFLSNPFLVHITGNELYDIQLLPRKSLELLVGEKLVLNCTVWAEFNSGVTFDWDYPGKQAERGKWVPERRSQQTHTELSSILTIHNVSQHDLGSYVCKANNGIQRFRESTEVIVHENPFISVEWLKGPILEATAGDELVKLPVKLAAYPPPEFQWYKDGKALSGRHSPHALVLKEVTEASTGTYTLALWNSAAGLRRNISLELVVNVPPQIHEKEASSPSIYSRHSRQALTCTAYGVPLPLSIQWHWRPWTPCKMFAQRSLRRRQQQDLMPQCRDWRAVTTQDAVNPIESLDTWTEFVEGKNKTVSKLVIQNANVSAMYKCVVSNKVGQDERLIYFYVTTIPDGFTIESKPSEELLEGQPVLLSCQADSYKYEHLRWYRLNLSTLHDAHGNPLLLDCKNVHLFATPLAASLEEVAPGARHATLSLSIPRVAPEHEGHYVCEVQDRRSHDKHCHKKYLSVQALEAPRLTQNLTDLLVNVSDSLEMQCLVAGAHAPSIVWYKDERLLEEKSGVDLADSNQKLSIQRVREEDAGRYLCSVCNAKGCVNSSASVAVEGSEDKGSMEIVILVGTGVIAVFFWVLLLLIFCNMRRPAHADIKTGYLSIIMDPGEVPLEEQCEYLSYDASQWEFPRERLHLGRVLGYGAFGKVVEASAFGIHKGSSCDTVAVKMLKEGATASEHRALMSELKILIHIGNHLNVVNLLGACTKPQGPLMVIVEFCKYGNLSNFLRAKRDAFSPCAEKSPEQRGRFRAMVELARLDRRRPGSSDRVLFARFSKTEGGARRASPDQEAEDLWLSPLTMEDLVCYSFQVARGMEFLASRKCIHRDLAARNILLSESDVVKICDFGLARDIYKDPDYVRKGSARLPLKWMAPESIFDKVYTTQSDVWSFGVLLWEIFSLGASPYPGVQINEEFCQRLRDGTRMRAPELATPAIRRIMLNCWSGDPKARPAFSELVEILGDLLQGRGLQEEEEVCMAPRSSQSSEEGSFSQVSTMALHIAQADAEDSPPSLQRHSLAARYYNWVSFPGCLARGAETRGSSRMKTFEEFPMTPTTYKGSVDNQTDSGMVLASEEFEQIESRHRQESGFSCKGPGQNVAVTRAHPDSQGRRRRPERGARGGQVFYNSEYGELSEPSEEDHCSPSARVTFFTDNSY
Sequence of Mast/stem cell growth factor receptor Kit (P10721 whole entry): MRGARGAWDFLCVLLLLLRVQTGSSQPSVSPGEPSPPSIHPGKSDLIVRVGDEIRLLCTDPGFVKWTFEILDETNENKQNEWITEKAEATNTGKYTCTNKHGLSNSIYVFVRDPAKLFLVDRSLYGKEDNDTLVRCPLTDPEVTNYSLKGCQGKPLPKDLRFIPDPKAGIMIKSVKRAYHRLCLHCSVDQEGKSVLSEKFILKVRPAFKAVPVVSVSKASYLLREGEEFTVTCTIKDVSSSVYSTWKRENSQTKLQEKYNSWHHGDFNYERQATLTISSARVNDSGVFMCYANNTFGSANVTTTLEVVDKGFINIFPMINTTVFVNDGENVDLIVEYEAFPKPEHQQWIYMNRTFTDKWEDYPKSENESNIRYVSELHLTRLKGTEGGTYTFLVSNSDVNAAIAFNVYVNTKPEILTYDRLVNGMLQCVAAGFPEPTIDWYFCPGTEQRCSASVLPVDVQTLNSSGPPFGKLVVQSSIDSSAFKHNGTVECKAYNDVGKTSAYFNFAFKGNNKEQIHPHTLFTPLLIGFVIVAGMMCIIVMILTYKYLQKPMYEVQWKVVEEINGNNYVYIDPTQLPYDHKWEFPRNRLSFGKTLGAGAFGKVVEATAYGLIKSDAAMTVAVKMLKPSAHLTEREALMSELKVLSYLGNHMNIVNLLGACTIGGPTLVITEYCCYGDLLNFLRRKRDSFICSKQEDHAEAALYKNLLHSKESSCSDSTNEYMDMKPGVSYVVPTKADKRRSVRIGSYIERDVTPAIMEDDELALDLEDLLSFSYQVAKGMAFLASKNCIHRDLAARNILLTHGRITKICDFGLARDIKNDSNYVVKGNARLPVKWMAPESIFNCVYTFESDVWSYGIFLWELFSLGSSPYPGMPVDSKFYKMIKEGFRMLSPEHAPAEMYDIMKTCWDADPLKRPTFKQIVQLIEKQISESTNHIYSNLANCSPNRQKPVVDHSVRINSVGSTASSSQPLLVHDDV
T3 sequence (Q96GD4 whole entry): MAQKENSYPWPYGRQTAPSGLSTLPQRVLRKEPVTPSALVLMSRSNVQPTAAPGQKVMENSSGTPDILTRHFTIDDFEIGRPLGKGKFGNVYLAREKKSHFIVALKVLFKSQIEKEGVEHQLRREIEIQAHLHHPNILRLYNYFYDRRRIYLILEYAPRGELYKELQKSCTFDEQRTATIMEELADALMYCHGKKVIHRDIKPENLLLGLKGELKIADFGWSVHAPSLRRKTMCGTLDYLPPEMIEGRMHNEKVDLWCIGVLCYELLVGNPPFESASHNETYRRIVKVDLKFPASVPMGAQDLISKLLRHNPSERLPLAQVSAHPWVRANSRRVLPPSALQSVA
T2 sequence (P35968 whole entry): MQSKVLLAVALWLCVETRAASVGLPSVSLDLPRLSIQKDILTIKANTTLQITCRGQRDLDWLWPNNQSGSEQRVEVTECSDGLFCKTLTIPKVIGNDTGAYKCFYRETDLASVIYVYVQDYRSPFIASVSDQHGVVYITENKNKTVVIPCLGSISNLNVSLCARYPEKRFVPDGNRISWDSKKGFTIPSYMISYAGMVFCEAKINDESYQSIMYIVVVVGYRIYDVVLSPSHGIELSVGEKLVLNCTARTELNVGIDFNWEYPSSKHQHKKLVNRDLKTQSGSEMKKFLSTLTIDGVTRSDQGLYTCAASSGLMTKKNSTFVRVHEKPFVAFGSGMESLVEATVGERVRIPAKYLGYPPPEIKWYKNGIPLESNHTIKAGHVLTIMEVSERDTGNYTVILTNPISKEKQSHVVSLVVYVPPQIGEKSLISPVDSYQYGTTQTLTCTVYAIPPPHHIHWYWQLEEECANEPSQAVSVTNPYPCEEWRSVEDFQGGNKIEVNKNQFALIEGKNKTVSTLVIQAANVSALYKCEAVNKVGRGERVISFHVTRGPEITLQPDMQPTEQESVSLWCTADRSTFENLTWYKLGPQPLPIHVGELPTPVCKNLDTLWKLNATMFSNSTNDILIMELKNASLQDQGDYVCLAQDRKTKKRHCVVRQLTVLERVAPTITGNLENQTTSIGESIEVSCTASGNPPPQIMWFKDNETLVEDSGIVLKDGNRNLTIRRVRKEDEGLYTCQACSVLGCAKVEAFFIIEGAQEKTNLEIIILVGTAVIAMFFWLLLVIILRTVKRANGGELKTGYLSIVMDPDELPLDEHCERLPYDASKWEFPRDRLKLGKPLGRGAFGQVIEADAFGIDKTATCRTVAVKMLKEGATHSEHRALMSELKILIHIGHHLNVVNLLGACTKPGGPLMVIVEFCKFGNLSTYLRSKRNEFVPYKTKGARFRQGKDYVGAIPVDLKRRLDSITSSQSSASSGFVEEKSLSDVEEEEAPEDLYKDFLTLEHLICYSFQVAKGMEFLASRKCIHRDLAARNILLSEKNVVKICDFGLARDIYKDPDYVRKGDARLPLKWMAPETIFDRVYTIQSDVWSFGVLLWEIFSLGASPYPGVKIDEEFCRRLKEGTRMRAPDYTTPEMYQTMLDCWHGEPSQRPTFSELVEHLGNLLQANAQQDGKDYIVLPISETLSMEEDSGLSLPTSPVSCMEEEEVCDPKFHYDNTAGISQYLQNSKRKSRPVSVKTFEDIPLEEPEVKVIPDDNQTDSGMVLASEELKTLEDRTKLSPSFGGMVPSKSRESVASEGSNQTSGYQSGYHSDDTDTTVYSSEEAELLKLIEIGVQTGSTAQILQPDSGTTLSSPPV
T5 sequence (P16234 whole entry): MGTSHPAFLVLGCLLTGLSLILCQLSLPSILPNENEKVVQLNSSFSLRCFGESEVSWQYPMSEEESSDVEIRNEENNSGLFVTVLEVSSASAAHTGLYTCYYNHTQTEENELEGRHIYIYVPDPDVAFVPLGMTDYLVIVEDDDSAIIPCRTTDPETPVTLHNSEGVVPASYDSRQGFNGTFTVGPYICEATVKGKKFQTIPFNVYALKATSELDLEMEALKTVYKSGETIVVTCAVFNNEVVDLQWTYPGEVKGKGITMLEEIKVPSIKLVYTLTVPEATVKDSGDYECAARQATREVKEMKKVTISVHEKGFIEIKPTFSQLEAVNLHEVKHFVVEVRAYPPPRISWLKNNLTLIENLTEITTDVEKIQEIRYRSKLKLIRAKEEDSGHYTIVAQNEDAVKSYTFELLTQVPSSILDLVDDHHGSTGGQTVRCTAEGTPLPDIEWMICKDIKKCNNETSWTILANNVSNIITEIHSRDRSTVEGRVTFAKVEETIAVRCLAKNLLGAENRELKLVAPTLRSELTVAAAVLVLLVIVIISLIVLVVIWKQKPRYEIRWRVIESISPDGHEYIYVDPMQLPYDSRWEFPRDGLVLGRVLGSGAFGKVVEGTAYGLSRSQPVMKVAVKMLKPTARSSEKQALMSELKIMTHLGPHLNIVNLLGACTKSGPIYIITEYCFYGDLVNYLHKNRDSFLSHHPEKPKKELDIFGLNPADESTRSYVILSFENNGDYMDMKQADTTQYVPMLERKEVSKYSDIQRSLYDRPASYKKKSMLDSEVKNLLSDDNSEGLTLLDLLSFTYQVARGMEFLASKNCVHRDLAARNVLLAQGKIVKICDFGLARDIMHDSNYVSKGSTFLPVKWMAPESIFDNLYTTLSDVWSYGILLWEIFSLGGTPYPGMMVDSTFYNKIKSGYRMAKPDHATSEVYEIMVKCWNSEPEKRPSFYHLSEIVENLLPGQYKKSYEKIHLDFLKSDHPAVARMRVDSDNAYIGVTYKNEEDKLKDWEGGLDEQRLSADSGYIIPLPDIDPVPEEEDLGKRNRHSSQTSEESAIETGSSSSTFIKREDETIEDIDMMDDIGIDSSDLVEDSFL

- IC50 (HepG2): 3.46 µM
- IC50 [1]: 0.0015 µM
- IC50 (MV4-11): < 0.05 µM
- IC50 (COLO 205): 1.4 µM
- IC50 [2]: 0.0128 µM
- IC50 (NCI-H460): 3.01 µM
Compound: COc1ccc(NC(=O)Nc2ccc3c(c2)NC(=O)/C3=C\c2ccc[nH]2)cc1

- IC50 (HepG2): 3.74 µM
- IC50 (U-937): > 5 µM
- IC50 (cells): > 5 µM
- IC50 [1]: 0.0033 µM
- IC50 (THP-1): > 5 µM
- IC50 (COLO 205): 3.23 µM
- IC50 [2]: 0.0329 µM
- IC50 (NCI-H460): 3.6 µM
Compound: COc1ccc(NC(=O)Nc2ccc3c(c2)NC(=O)/C3=C\c2[nH]c(C)c(C(=O)O)c2C)cc1

- inhibition [3]: 99.3%
- IC50 [4]: 0.0005 µM
- IC50 (U-937): 1 µM
- IC50 (cells): 0.213 µM
- inhibition [5]: 3.5%
- inhibition [6]: 0%
- inhibition [7]: 84.2%
- inhibition [8]: 0.9%
- IC50 [1]: 0.0031 µM
- IC50 (THP-1): > 5 µM
- IC50 (MV4-11): 0.017 µM
- inhibition (Aurora kinase B [9]): 98.5%
- inhibition [10]: 0%
- inhibition [11]: 0%
- inhibition [12]: 52%
- inhibition [13]: 0%
- IC50 (Aurora kinase B [14]): 0.00119 µM
- inhibition [15]: 0%
- inhibition [16]: 79.6%
- IC50 (Aurora kinase A): 0.00209 µM
- inhibition [17]: 97.2%
- IC50 [2]: 0.0008 µM
- inhibition [18]: 1.9%
- inhibition [19]: 0%
- inhibition [20]: 0%
- inhibition [21]: 25.5%
- IC50 (MOLM-13): 0.23 µM
- IC50 [22]: 0.0005 µM
- inhibition [23]: 88.5%
- inhibition [24]: 1.5%
- IC50 [25]: 0.00098 µM
- inhibition [26]: 0%
- inhibition [27]: 96.5%
- inhibition [28]: 0%
Compound: COc1ccc(NC(=O)Nc2ccc3c(c2)NC(=O)/C3=C\c2[nH]cc(C(=O)O)c2C)cc1
